Where two headings read alike, the source gives them in different places.
Columns and labels:
[1] = tested on: HIV-1APV ^R 5μM; assay: p24 production inhibition in MT-4 cells; type: cell-based; settings: for EC50: Human immunodeficiency virus 1, MT4, read-out: EC50 HIV-1APV ^R 5μM, MT-4 cells, p24 Gag production
Procedure: (§1) The susceptibility of HIV-1LAI or HIV-2ROD to various compounds was determined as previously described[20]–[22]. Briefly, MT-2 cells (10^4/ml) were exposed to 100 TCID50 of HIV-1LAI or HIV-2ROD in the presence or absence of various concentrations of compounds in 96-well plates and were incubated at 37 °C for 7 days. After incubation, 100 μl of the medium was removed from each well, 3-(4,5-dimetylthiazol-2-yl)-2,5-diphenyltetrazolium bromide (MTT) solution (10 μl, 7.5 mg/ml in PBS) was added to each well, followed by incubation at 37 °C for 2 h. […] To determine the sensitivity of clinically isolated HIV-1s to compounds, PHA-PBMC (10^6/ml) were exposed to 50 TCID50 of each HIV-1 and cultured in the presence or absence of various concentrations of compounds in 10-fold serial dilutions in 96-well plates. In determining the drug-susceptibility of certain laboratory HIV-1 strains, MT-4 cells were employed as target cells as previously described[23],[24]. MT-4 cells (10^5/ml) were exposed to 100 TCID50 of drug-resistant HIV-1s in the presence or absence of various concentrations of compounds and were incubated at 37 °C. On day 7, the supernatants were harvested and the amounts of p24 were determined by using a fully-automated chemiluminescent enzyme immunoassay system (Lumipulse f: Fujirebio, Tokyo)[35]–[37]. […] All assays were performed in duplicate, and EC50 shown in this report represent average values of two to four independent experiments. PHA-PBMCs were derived from a single donor in each independent experiment. The research protocols described in the present study were carried out in accordance with relevant guidelines and regulations, and were approved in Ethics Committee for Epidemiological and General Research at the Faculty of Life Sciences, Kumamoto University.

[2] = tested on: HIV-1_9510 ^R 36P; assay: p24 production inhibition in MT-4 cells; type: cell-based; settings: for EC50: Human immunodeficiency virus 1, MT4, read-out: EC50 HIV-19510RP36
Procedure: as §1

[3] = tested on: HIV-1NL4-3; assay: p24 production inhibition in MT-4 cells; type: cell-based; settings: Human immunodeficiency virus 1, MT4, MT-4 cells, p24 Gag production, Table 3
Procedure: as §1

[4] = tested on: HIV-1ATV ^R 5μM; assay: p24 production inhibition in MT-4 cells; type: cell-based; settings: for EC50: Human immunodeficiency virus 1, MT4, read-out: EC50 HIV-1ATV ^R 5μM, MT-4 cells, p24 Gag production
Procedure: as §1

[5] = tested on: HIV-1LPV ^R 5μM; assay: p24 production inhibition in MT-4 cells; type: cell-based; settings: for EC50: Human immunodeficiency virus 1, MT4, read-out: EC50 HIV-1LPV ^R 5μM, MT-4 cells, p24 Gag production
Procedure: as §1

[6] = tested on: HIV-1ME46 (subtype B, X4/R5); assay: p24 production inhibition in PHA-PBMC; type: cell-based; settings: Human immunodeficiency virus 1, PHA-PBMC, p24 Gag production
Procedure: as §1

[7] = tested on: HIV-1MDRmix DRV ^R 20P; assay: p24 production inhibition in PHA-PBMC; type: cell-based; settings: for EC50: Human immunodeficiency virus 1, read-out: EC50 HIV-1MDRmix DRV ^R 20P, PHA-PBMC, p24 Gag production
Procedure: as §1

[8] = tested on: HIV-1BaL (subtype B, R5); assay: p24 production inhibition in PHA-PBMC; type: cell-based; settings: Human immunodeficiency virus 1, PHA-PBMC, p24 Gag production
Procedure: as §1

[9] = tested on: HIV-1MDR/G; assay: p24 production inhibition in PHA-PBMC; type: cell-based; settings: for EC50: Human immunodeficiency virus 1, PHA-PBMC, p24 Gag production
Procedure: as §1

[10] = tested on: HIV-1ERS104pre (wild-type); assay: p24 production inhibition in PHA-PBMC; type: cell-based; settings: Human immunodeficiency virus 1, PHA-PBMC, p24 Gag production
Procedure: as §1

[11] = tested on: HIV-192UG029 (subtype A, X4); assay: p24 production inhibition in PHA-PBMC; type: cell-based, HIV-1; settings: Human immunodeficiency virus 1, read-out: EC50 HIV-192UG029 (subtype A, X4)
Procedure: as §1

[12] = tested on: HIV-2ROD; assay: microbe, parasite or virus in culture; type: cell-based; settings: for EC50: Human immunodeficiency virus 2, MT2, MT-2 cells, 100 TCID50, MTT assay, read-out: EC50 Against HIV-2ROD
Procedure: as §1

[13] = tested on: HIV-1LAI; assay: microbe, parasite or virus in culture; type: cell-based; settings: for EC50: Human immunodeficiency virus 1, MT2, MT-2 cells, 100 TCID50, MTT assay, read-out: EC50 Against HIV-1LAI
Procedure: as §1

[14] = Cytotoxicity against MT-2 cells (MTT assay); type: cell-based; settings: human
Procedure: as §1

[15] = tested on: HIV-1MDR/C; assay: p24 production inhibition in PHA-PBMC; type: cell-based
Procedure: as §1

[16] = tested on: HIV-1MDR/B; assay: p24 production inhibition in PHA-PBMC; type: cell-based
Procedure: as §1

[17] = tested on: HIV-1MDR/TM; assay: p24 production inhibition in PHA-PBMC; type: cell-based
Procedure: as §1

[18] = tested on: HIV-1NL4-3; assay: In vitro selection of resistant HIV-1 variants in MT-4 cells; type: cell-based; settings: HIV-1NL4-3 in MT-4 cells, increasing concentrations
Excerpt: MT-4 cells (10^5/ml) were exposed to HIV-1NL4-3 (500 TCID50) and cultured in the presence of compounds at an initial concentration of its EC50 value. Viral replication was monitored by the determination of the amount of p24 produced by MT-4 cells. The supernatants were harvested on day 7 and were used to infect fresh MT-4 cells for the next round of culture in the presence of increasing concentrations of each compound. Proviral DNAs obtained from the lysates of infected cells were subjected to sequencing. This selection procedure was carried out until the drug concentration reached 5 μM as previously described[20]–[22]).

[19] = tested on: HIV-1APV ^R 5μM; set-up: method as in earlier work; settings: and 22, cited from earlier work
[20] = tested on: HIV-1MDR/G; set-up: method as in earlier work; settings: and 22, cited from earlier work
[21] = tested on: HIV-1NL4-3; settings: MT-4 cells, p24 assay, previously reported; and 22; cited from earlier work
[22] = tested on: HIV-1ERS104pre (wild-type); settings: PHA-PBMs, p24 assay, previously reported; and 22; read-out: EC50 HIV-1WT/ERS104pre; cited from earlier work
[23] = number in parentheses, compared to HIV-1NL4-3
[24] = Human immunodeficiency virus 1, PHA-PBMC, p24 Gag production
[25] = compared to EC50 for HIV-1ERS104pre

Structure (SMILES)	EC50 [1] [nM]	EC50 [2] [nM]	EC50 [3] [nM]	EC50 [4] [nM]	EC50 [5] [nM]	EC50 [6] [nM]	EC50 [7] [nM]	EC50 [8] [nM]	EC50 [9] [nM]	EC50 [10] [nM]	EC50 [11] [nM]	EC50 [12] [nM]	EC50 [13] [nM]	further results
CC(C)CN(C[C@@H](O)[C@H](Cc1ccccc1)NC(=O)O[C@H]1CO[C@H]2OCC[C@H]21)S(=O)(=O)c1ccc(N)cc1 [DRV, Darunavir]	410 ± 10	41 ± 1	4.5 ± 0.4	24 ± 60	34 ± 5	2.3 ± 0.4	300 ± 60	1.8 ± 0.1	20 ± 9	4.4 ± 0.9	5.5 ± 0.1	14 ± 7	5 ± 2	CC50 at 7 days [14]: 101000 ± 8800 nM
COC(=O)N[C@H](C(=O)N[C@@H](Cc1ccccc1)[C@@H](O)CN(Cc1ccc(-c2ccccn2)cc1)NC(=O)[C@@H](NC(=O)OC)C(C)(C)C)C(C)(C)C [ATV, Atazanavir]	371 ± 8	24 ± 1	4.3 ± 0.9	> 1000	38 ± 1	4.2 ± 0.5	> 1000	2 ± 1	30 ± 10	3.1 ± 0.6	6 ± 3	17 ± 3	4 ± 1	fold change of EC50 HIV-1APV ^R 5μM [1, 23]: 86; fold change of EC50 HIV-19510RP36 ([2]; compared to EC50 for HIV-1NL4-3, Supplemental Table 3): 6; fold change of EC50 HIV-1ATV ^R 5μM [4, 23]: > 233; fold change of EC50 HIV-1LPV ^R 5μM [5, 23]: 9; EC50 [15, 24]: 50 ± 20 nM; fold change of EC50 HIV-1MDR/C [15, 25]: 16; fold change of EC50 HIV-1MDRmix DRV ^R 20P [7, 25]: > 323; EC50 [16, 24]: 360 ± 160 nM; fold change of EC50 HIV-1MDR/B [16, 25]: 116; fold change of EC50 HIV-1MDR/G [9, 25]: 10; EC50 [17, 24]: 71 ± 8 nM; fold change of EC50 HIV-1MDR/TM [17, 25]: 23; Selectivity Index (CC50/EC50) MT2/HIV-2ROD ([12]; ratio of CC50 to EC50 against HIV-2ROD): 1,906; Selectivity Index (CC50/EC50) MT2/HIV-1LAI ([13]; ratio of CC50 to EC50 against HIV-1LAI): 8,100; CC50 [14]: 32400 ± 1000 nM
Cc1nnc(C(=O)NC(C)(C)c2nc(C(=O)NCc3ccc(F)cc3)c(O)c(=O)n2C)o1 [RAL, Raltegravir]	–	–	–	–	–	–	–	–	–	–	–	–	–	passage at which selection concentration reached 5 µM [18]: ≥ 20
CC(C)CN(C[C@@H](O)[C@H](Cc1ccccc1)NC(=O)O[C@H]1CO[C@H]2OCC(F)(F)[C@H]21)S(=O)(=O)c1ccc(N)cc1 [GRL-05010]	–	–	–	–	–	–	–	–	–	–	–	–	–	EC50 ([19]; MT-4 cells, p24 assay, previously reported, read-out: EC50 HIV-1APVR5M): 560 ± 30 nM; fold change in EC50 HIV-1APVR5M ([19]; compared to HIV-1NL4-3, previously reported data): 187; EC50 ([20]; PHA-PBMs, p24 assay, previously reported): 4 ± 1 nM; fold change in EC50 HIV-1MDR/G ([20]; compared to HIV-1WT/ERS104pre, previously reported data): 1; EC50 [21]: 3.7 ± 0.1 nM; EC50 [22]: 2.7 ± 0.3 nM

From publication PMC5613016, “GRL-09510, a Unique P2-Crown-Tetrahydrofuranylurethane -Containing HIV-1 Protease Inhibitor, Maintains Its Favorable Antiviral Activity against Highly-Drug-Resistant HIV-1 Variants in vitro” (Scientific Reports, 2017)
